Values quoted from earlier work, collected in patent US20140328795A1, “VIRUCIDAL SMALL MOLECULE AND USES THEREOF” (The Texas A&M University System, priority 2012, published 2014).

System: HIV
Settings: VOICE trial among African women; cited from earlier work

SMILES: C[C@H](Cn1cnc2c(N)ncnc21)OCP(=O)(O)O [tenofovir]
- protection against HIV: failed to provide protection against HIV
